Measurements: patent US9328099B2, “Cyanomethylpyrazole carboxamides as janus kinase inhibitors” (Merck Sharp & Dohme Corp., priority 2011, dated 2016)

What was measured:
JAK1 = JAK1 (Homo sapiens (Human), UniProt P23458); assay: Jak Biochemical HTRF Assay, JAK1; conditions: HTRF biochemical assay, GST-tagged catalytic domain; top concentration tested […]; read-out: JAK1 IC50
Description: (§1) Jak Biochemical HTRF Assay Protocol
(§2) Subsequent reagent additions employed an Agilent Bravo.

JAK2 = JAK2 (Homo sapiens (Human), UniProt O60674); assay: Jak Biochemical HTRF Assay, JAK2; conditions: HTRF biochemical assay, GST-tagged catalytic domain; top concentration tested […]
Description: as §1, §2

JAK2, sequence (O60674 849-1124): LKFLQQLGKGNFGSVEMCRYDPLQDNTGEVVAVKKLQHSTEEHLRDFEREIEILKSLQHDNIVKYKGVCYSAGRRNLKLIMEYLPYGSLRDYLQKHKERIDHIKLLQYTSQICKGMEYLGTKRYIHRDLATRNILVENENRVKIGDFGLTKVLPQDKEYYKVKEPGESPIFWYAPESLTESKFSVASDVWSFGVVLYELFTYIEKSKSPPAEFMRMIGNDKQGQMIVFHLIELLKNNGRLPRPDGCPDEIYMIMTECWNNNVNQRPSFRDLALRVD
JAK1, sequence (P23458 875-1153): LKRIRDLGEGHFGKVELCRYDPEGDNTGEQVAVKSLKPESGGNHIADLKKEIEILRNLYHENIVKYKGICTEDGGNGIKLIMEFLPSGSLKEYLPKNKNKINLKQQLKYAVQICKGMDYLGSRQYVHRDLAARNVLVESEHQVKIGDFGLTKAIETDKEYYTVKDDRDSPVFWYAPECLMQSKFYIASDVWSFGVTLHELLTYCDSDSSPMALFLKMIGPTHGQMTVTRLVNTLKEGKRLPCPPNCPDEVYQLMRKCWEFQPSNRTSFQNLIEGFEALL

SMILES	IC50 (JAK1) [µM]	IC50 (JAK2) [µM]
N#CCC1(n2cc(C(N)=O)c(Nc3ccc(F)cc3)n2)CCN(c2cncc(C(F)(F)F)c2)CC1 [Example 3-8, 1-{4-(cyanomethyl)-1-[5-(trifluoromethyl)pyridin-3-yl]piperidin-4-yl}-3-[(4-fluorophenyl)amino]-1H-pyrazole-4-carboxamide]	0.001	0.054
N#CCC1(n2cc(C(N)=O)c(Nc3ccc(F)cc3)n2)CCN(c2cccc(OCCO)n2)CC1 [Example 3-10, 1-{4-(cyanomethyl)-1-[6-(2-hydroxyethoxy)pyridin-2-yl]piperidin-4-yl}-3-[(4-fluorophenyl)amino]-1H-pyrazole-4-carboxamide]	0.003	0.047
COc1cc(F)cc(N2CCC(CC#N)(n3cc(C(N)=O)c(Nc4ccc(F)cc4)n3)CC2)c1 [Example 3-12, 1-[4-(cyanomethyl)-1-(3-fluoro-5-methoxyphenyl)piperidin-4-yl]-3-[(4-fluorophenyl)amino]-1H-pyrazole-4-carboxamide]	0.002	0.04
Cc1cc(N2CCC(CC#N)(n3cc(C(N)=O)c(Nc4ccc(F)cc4)n3)CC2)cnc1C [Example 3-14, 1-[4-(cyanomethyl)-1-(5,6-dimethylpyridin-3-yl)piperidin-4-yl]-3-[(4-fluorophenyl)amino]-1H-pyrazole-4-carboxamide]	0.002	0.049
CC(C)Oc1cccc(N2CCC(CC#N)(n3cc(C(N)=O)c(Nc4ccc(F)cc4)n3)CC2)n1 [Example 3-15, 1-{4-(cyanomethyl)-1-[6-(1-methylethoxy)pyridin-2-yl]piperidin-4-yl}-3-[(4-fluorophenyl)amino]-1H-pyrazole-4-carboxamide]	0.191	> 1.5
CCOc1cccc(N2CCC(CC#N)(n3cc(C(N)=O)c(Nc4ccc(F)cc4)n3)CC2)n1 [Example 3-16, 1-[4-(cyanomethyl)-1-(6-ethoxypyridin-2-yl)piperidin-4-yl]-3-[(4-fluorophenyl)amino]-1H-pyrazole-4-carboxamide]	0.045	0.861
N#CCC1(n2cc(C(N)=O)c(Nc3ccc(F)cc3)n2)CCN(c2ccc(OC(F)F)cn2)CC1 [Example 3-19, 1-{4-(cyanomethyl)-1-[5-(difluoromethoxy)pyridin-2-yl]piperidin-4-yl}-3-[(4-fluorophenyl)amino]-1H-pyrazole-4-carboxamide]	0.0006	0.018
COc1cccnc1N1CCC(CC#N)(n2cc(C(N)=O)c(Nc3ccc(F)cc3)n2)CC1 [Example 3-23, 1-[4-(cyanomethyl)-1-(3-methoxypyridin-2-yl)piperidin-4-yl]-3-[(4-fluorophenyl)amino]-1H-pyrazole-4-carboxamide]	0.033	0.559
COc1ncc(N2CCC(CC#N)(n3cc(C(N)=O)c(Nc4ccc(F)cc4)n3)CC2)cn1 [Example 3-25, 1-[4-(cyanomethyl)-1-(2-methoxypyrimidin-5-yl)piperidin-4-yl]-3-[(4-fluorophenyl)amino]-1H-pyrazole-4-carboxamide]	0.0007	0.021
N#CCC1(n2cc(C(N)=O)c(Nc3ccc(F)cc3)n2)CCN(c2ccc(C(F)(F)F)nc2)CC1 [Example 3-28, 1-{4-(cyanomethyl)-1-[6-(trifluoromethyl)pyridin-3-yl]piperidin-4-yl}-3-[(4-fluorophenyl)amino]-1H-pyrazole-4-carboxamide]	0.0006	0.026
Cc1ncccc1N1CCC(CC#N)(n2cc(C(N)=O)c(Nc3ccc(F)cc3)n2)CC1 [Example 3-29, 1-[4-(cyanomethyl)-1-(2-methylpyridin-3-yl)piperidin-4-yl]-3-[(4-fluorophenyl)amino]-1H-pyrazole-4-carboxamide]	0.009	0.209
Cc1ccnc(N2CCC(CC#N)(n3cc(C(N)=O)c(Nc4ccc(F)cc4)n3)CC2)c1 [Example 3-31, 1-[4-(cyanomethyl)-1-(4-methylpyridin-2-yl)piperidin-4-yl]-3-[(4-fluorophenyl)amino]-1H-pyrazole-4-carboxamide]	0.001	0.044
Cc1ccc(F)cc1N1CCC(CC#N)(n2cc(C(N)=O)c(Nc3ccc(F)cc3)n2)CC1 [Example 3-32, 1-[4-(cyanomethyl)-1-(5-fluoro-2-methylphenyl)piperidin-4-yl]-3-[(4-fluorophenyl)amino]-1H-pyrazole-4-carboxamide]	0.204	> 1.5
Cc1ccncc1N1CCC(CC#N)(n2cc(C(N)=O)c(Nc3ccc(F)cc3)n2)CC1 [Example 3-33, 1-[4-(cyanomethyl)-1-(4-methylpyridin-3-yl)piperidin-4-yl]-3-[(4-fluorophenyl)amino]-1H-pyrazole-4-carboxamide]	0.007	0.102
COC(=O)c1cccc(N2CCC(CC#N)(n3cc(C(N)=O)c(Nc4ccc(F)cc4)n3)CC2)n1 [Example 3-35, methyl 6-[4-{4-carbamoyl-3-[(4-fluorophenyl)amino]-1H-pyrazol-1-yl}-4-(cyanomethyl)piperidin-1-yl]pyridine-2-carboxylate]	0.019	0.28
COc1cncc(N2CCC(CC#N)(n3cc(C(N)=O)c(Nc4ccc(F)cc4)n3)CC2)c1 [Example 3-37, 1-[4-(cyanomethyl)-1-(5-methoxypyridin-3-yl)piperidin-4-yl]-3-[(4-fluorophenyl)amino]-1H-pyrazole-4-carboxamide]	0.0006	0.017
N#CCC1(n2cc(C(N)=O)c(Nc3ccc(F)cc3)n2)CCN(c2cc(F)cc(F)c2)CC1 [Example 3-40, 1-[4-(cyanomethyl)-1-(3,5-difluorophenyl)piperidin-4-yl]-3-[(4-fluorophenyl)amino]-1H-pyrazole-4-carboxamide]	0.003	0.067
COc1ccccc1N1CCC(CC#N)(n2cc(C(N)=O)c(Nc3ccc(F)cc3)n2)CC1 [Example 3-41, 1-[4-(cyanomethyl)-1-(2-methoxyphenyl)piperidin-4-yl]-3-[(4-fluorophenyl)amino]-1H-pyrazole-4-carboxamide]	0.213	> 1.5

Other lines, results leading:

IC50 (JAK1) [µM]	IC50 (JAK2) [µM]	SMILES
0.001	0.037	N#CCC1(n2cc(C(N)=O)c(Nc3ccc(F)cc3)n2)CCN(c2ccc(C(O)C(F)(F)F)cc2)CC1 (stereo not drawn) [Example 3-9, 1-{4-(cyanomethyl)-1-[4-(2,2,2-trifluoro-1-hydroxyethyl)phenyl]piperidin-4-yl}-3-[(4-fluorophenyl)amino]-1H-pyrazole-4-carboxamide]
0.004	0.074	COc1cc(N2CCC(CC#N)(n3cc(C(N)=O)c(Nc4ccc(F)cc4)n3)CC2)ccc1F [Example 3-11, 1-[4-(cyanomethyl)-1-(4-fluoro-3-methoxyphenyl)piperidin-4-yl]-3-[(4-fluorophenyl)amino]-1H-pyrazole-4-carboxamide]
0.0007	0.021	N#CCC1(n2cc(C(N)=O)c(Nc3ccc(F)cc3)n2)CCN(c2ccc(OC(F)F)nc2)CC1 [Example 3-13, 1-{4-(cyanomethyl)-1-[6-(difluoromethoxy)pyridin-3-yl]piperidin-4-yl}-3-[(4-fluorophenyl)amino]-1H-pyrazole-4-carboxamide]
0.032	0.78	N#CCC1(n2cc(C(N)=O)c(Nc3ccc(F)cc3)n2)CCN(c2cccc(C3CC3)c2)CC1 [Example 3-17, 1-[4-(cyanomethyl)-1-(3-cyclopropylphenyl)piperidin-4-yl]-3-[(4-fluorophenyl)amino]-1H-pyrazole-4-carboxamide]
0.003	0.089	N#CCC1(n2cc(C(N)=O)c(Nc3ccc(F)cc3)n2)CCN(c2cccc(C#N)n2)CC1 [Example 3-18, 1-[4-(cyanomethyl)-1-(6-cyanopyridin-2-yl)piperidin-4-yl]-3-[(4-fluorophenyl)amino]-1H-pyrazole-4-carboxamide]
0.0006	0.02	N#CCC1(n2cc(C(N)=O)c(Nc3ccc(F)cc3)n2)CCN(c2cncc(C#N)c2)CC1 [Example 3-21, 1-[4-(cyanomethyl)-1-(5-cyanopyridin-3-yl)piperidin-4-yl]-3-[(4-fluorophenyl)amino]-1H-pyrazole-4-carboxamide]
0.0002	0.003	N#CCC1(n2cc(C(N)=O)c(Nc3ccc(F)cc3)n2)CCN(c2ccc(C#N)cc2)CC1 [Example 3-26, 1-[4-(cyanomethyl)-1-(4-cyanophenyl)piperidin-4-yl]-3-[(4-fluorophenyl)amino]-1H-pyrazole-4-carboxamide]
0.0003	0.006	N#CCC1(n2cc(C(N)=O)c(Nc3ccc(F)cc3)n2)CCN(c2cccnc2)CC1 [Example 3-30, 1-[4-(cyanomethyl)-1-pyridin-3-ylpiperidin-4-yl]-3-[(4-fluorophenyl)amino]-1H-pyrazole-4-carboxamide]
0.005	0.215	Cc1ccc(N2CCC(CC#N)(n3cc(C(N)=O)c(Nc4ccc(F)cc4)n3)CC2)cc1F [Example 3-34, 1-[4-(cyanomethyl)-1-(3-fluoro-4-methylphenyl)piperidin-4-yl]-3-[(4-fluorophenyl)amino]-1H-pyrazole-4-carboxamide]
0.003	0.046	CCOc1ccc(N2CCC(CC#N)(n3cc(C(N)=O)c(Nc4ccc(F)cc4)n3)CC2)cn1 [Example 3-36, 1-[4-(cyanomethyl)-1-(6-ethoxypyridin-3-yl)piperidin-4-yl]-3-[(4-fluorophenyl)amino]-1H-pyrazole-4-carboxamide]
0.002	0.037	N#CCC1(n2cc(C(N)=O)c(Nc3ccc(F)cc3)n2)CCN(c2ccc(F)cc2)CC1 [Example 3-38, 1-[4-(cyanomethyl)-1-(4-fluorophenyl)piperidin-4-yl]-3-[(4-fluorophenyl)amino]-1H-pyrazole-4-carboxamide]
0.004	0.117	Cc1ccc(N2CCC(CC#N)(n3cc(C(N)=O)c(Nc4ccc(F)cc4)n3)CC2)cc1 [Example 3-39, 1-[4-(cyanomethyl)-1-(4-methylphenyl)piperidin-4-yl]-3-[(4-fluorophenyl)amino]-1H-pyrazole-4-carboxamide]
